The test system of series [1] is AP site cleavage activity of HeLa whole cell extract. As to the kind of experiment: Whole cell extract AP endonuclease activity assay (HeLa). The series is classed as biochemical, human. Particulars: inhibitor at 100 µM. The procedure: (§1) The radiotracer assay was performed essentially as described. In brief, prioritized candidate inhibitor compounds from the qHTS assay were incubated at various concentrations (100 µM data shown) with APE1 (100 pg) at room temperature for 15 min in 25 mM Tris pH 7.5, 25 mM NaCl, 1 mM MgCl2, 1 mM DTT and 0.01% Tween-20. At that time, 0.5 pmol ^32P-radiolabeled THF-containing 34 mer double-stranded DNA substrate was added. Incision reactions were then carried out immediately at 37°C for 10 min in a final volume of 10 µL. After the addition of an equal volume of stop buffer (0.05% bromophenol blue and xylene cynol, 20 mM EDTA, 95% formamide), the radiolabeled substrate and product were separated on a standard polyacrylamide denaturing gel and quantified by phosphorimager analysis.
(§2) HEK 293T or HeLa cells – maintained in DMEM with 10% fetal bovine serum and 1% Penicillin-Streptomycin – were harvested, washed with 1× PBS, re-suspended in cold 222 mM KCl, incubated on ice for 30 min, and clarified by centrifugation at 12,000×g for 15 min at 4°C [23]. The supernatant (whole cell extract) was retained, the protein concentration determined using the Bio-Rad Bradford reagent, and aliquots were stored at −80°C. AP endonuclease activity assays were performed with or without candidate inhibitor compounds as described above, except 60 ng HEK 293T or 80 ng of HeLa whole cell extract was used.

Series [2] addresses T1, APE1 (Homo sapiens, UniProt P27695).
T1 construct: made in house
Kind of series: qHTS fluorogenic AP site incision assay (TAMRA/BHQ-2 red substrate, 1536-well). The series is classed as biochemical. Particulars: 50 nM substrate, 0.75 nM APE1; read-out: qHTS IC50 (primary screen, APE1). The procedure:
Recombinant human APE1 and E. coli EndoIV were purified as previously described. Deoxyoligonucleotides containing a tetrahydrofuran (THF) AP site analog, carboxytetramethyl rhodamine (TAMRA), or Black Hole Quencher-2 (BHQ-2), as appropriate (see Figure 1), were purchased from Biosearch Technologies, Inc., (Novato, CA). To create double-stranded DNA substrates, equal volumes of 200 µM solutions of the respective strands in reaction buffer were mixed and incubated at 95°C for 5 min. The annealing mixture was allowed to cool gradually to room temperature. Annealing and assay experiments were performed in the following buffer: 50 mM Tris pH 7.5, 25 mM NaCl, 2 mM MgCl2, 1 mM DTT, 0.01% Tween-20.
Initial optimizations were carried out in 384-well format at a 40 µL total reaction volume. Briefly, 30 µL of APE1 were pipetted into the plate and incubated at room temperature for 10 min; subsequently, 10 µL of substrate were added to start the reaction. The final assay concentrations of the enzyme and substrate were 0.75 nM and 50 nM, respectively. Kinetic fluorescence data were collected on a ViewLux high-throughput CCD imager (Perkin Elmer, Waltham, MA) equipped with standard FITC (excitation filter 480 nm and emission filter 530 nm) or BODIPY (excitation filter 525 nm and emission filter 598 nm) optics.
Three µl of reagents (buffer in columns 3 and 4 as negative control and APE1 in columns 1, 2, 5–48) were dispensed into a 1536-well plate. Compounds (DMSO solutions) and control (DMSO only) (23 nL) were transferred via Kalypsys pintool equipped with 1536-pin array. The plate was incubated for 15 min at room temperature, and then 1 µL of substrate (50 nM final concentration) was added to start the reaction. Library plates were screened from the lowest to highest concentration.
Screening data were corrected and normalized, and concentration–effect relationships were derived by using in-house developed, publicly available algorithms (http://www.ncgc.nih.gov/pub/openhts/curvefit/). Percent activity was computed after normalization against the uninhibited, or neutral, control (64 wells, entire columns 1 and 2) and the no-enzyme, or 100% inhibited, control (64 wells, entire columns 3 and 4), respectively. A four parameter Hill equation was fitted to the concentration-response data by minimizing the residual error between the modeled and observed responses.

The test system of series [3] is HeLa cells. As to the kind of experiment: AP site measurement in chromosomal DNA. The series is classed as cell-based, human. Particulars: for AP site damage, inhibitor alone: 5 µM inhibitor alone, relative to control cells; for AP site damage, inhibitor plus MMS: 5 µM inhibitor plus MMS. The procedure: HeLa cells were treated as above, except only at 5 µM inhibitor where indicated. Following exposure, chromosomal DNA was isolated and steady-state AP site levels were measured using the DNA Damage Quantification Kit from Dojindo Molecular Technologies, Inc. (Gaithersburg, MD) as previously described.

Series [4] deals with T1, APE1. Kind of series: Radiotracer (32P, gel-based) incision assay. The series is classed as biochemical. Particulars: for IC50: range of inhibitor concentrations, data not shown, read-out: approximate IC50 in radiotracer assay.
For series [5], the target named is T2, E. coli EndoIV (Escherichia coli, UniProt P0A6C1).
T2 construct: made in house
As to the kind of experiment: E. coli Endonuclease IV (EndoIV) profiling assay. Conditions: for IC50: 2 nM EndoIV, 50 nM substrate, read-out: Endo IV IC50 (E. coli EndoIV profiling). The series is classed as biochemical. The procedure:
EndoIV enzyme and substrate (same as that used with APE1) optimization tests were initially performed at a 40 µL final volume in a 384-well format. Reaction concentrations of 2 nM EndoIV and 50 nM DNA substrate were selected for subsequent experiments. For running the assay in 1536-well format, the same protocol as described for APE1 above was followed.

The target of series [6] is unlabeled double-stranded DNA substrate. Kind of series: ThO dye-displacement assay (DNA binding). Particulars: 50 nM DNA, 250 nM ThO.
In series [7] the test system is AP site cleavage activity of HEK 293T whole cell extract. As to the kind of experiment: Whole cell extract AP endonuclease activity assay (HEK 293T). The series is classed as biochemical, human. Particulars: inhibitor at 100 µM. The procedure:
as §1, §2

Series [8] has as its system HeLa cells. Kind of series: Cell-based colony survival assay with MMS. Set-up: species or system human. Conditions: HeLa colony formation, 0.25 mM MMS, 1 or 5 µM inhibitor. The procedure:
To measure colony survival, HeLa cells were plated in 6-well plates 12–20 hr prior to treatment. Cells were treated as follows: (i) exposed only to control medium, (ii) exposed to 0.25 mM MMS alone for 1 hr, (iii) exposed to 1 or 5 µM of the indicated inhibitor compound alone for 4 hr, or (iii) exposed to inhibitor compound alone for 3 hr and then with MMS for an additional 1 hr at 37°C. Following treatment, cells were washed once with 1× PBS and incubated in regular maintenance media (DMEM, 10% FBS) at 37°C for 10–15 days. Colonies formed were fixed in methanol, stained in methylene blue (Sigma), and counted to determine percent survival relative to the untreated controls.

On the set-up of series [9]: method as in PMID 18042731. Particulars: cited from earlier work.
On the set-up of series [10]: method as in PMID 7019686. Particulars: cited from earlier work.

We go through three molecules from publication PMC2685009, “Identification and Characterization of Inhibitors of Human Apurinic/apyrimidinic Endonuclease APE1” (PLoS ONE, 2009).

Each structure is given as a SMILES string.

T1 sequence (P27695 whole entry): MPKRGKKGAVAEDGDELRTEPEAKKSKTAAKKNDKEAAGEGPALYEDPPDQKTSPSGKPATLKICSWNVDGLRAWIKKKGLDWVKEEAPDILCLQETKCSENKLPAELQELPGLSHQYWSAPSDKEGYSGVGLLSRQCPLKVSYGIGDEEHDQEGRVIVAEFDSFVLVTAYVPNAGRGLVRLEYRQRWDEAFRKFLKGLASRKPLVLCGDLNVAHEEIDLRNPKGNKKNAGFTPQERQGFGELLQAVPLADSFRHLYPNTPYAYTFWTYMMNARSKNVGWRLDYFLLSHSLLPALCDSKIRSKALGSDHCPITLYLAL

The term IC50 denotes the concentration at which inhibition is half-maximal. Take `Nc1c(S(=O)(=O)O)cc(Nc2ccc(Nc3nc(Cl)nc(Nc4cccc(S(=O)(=O)O)c4)n3)c(S(=O)(=O)O)c2)c2c1C(=O)c1ccccc1C2=O` [Reactive Blue 2]: the “inhibition of total AP site cleavage activity” value in series [1] and in series [7] was ≥ 80% in each case. Moreover, the IC50 was 250 nM in series [2], < 500 nM in [4], 10 µM in series [5] and 8.9 µM in series [6]. Also, the “AP site damage, inhibitor alone” value in series [3] is given as “increased AP site damage relative to the control cells”. The “AP site damage, inhibitor plus MMS” value in series [3] is “potentiated the genotoxic potential of MMS”. Also, the “Gel: inhibition detected or not in radiotracer incision assay” value in series [4] (APE1, 32P-labeled THF substrate) was “Yes”. For the same molecule, in [5], the “activity against EndoIV compared with APE1 (in words)” value was “completely inactive or weakly active”. Besides, in [8], the “percent cell killing, MMS plus inhibitor relative to alkylator or inhibitor alone” value is recorded as “greater than additive increase”.
Take `O=C(O)c1cc[c]([Sb](=[O])([OH])[OH])cc1[N+](=O)[O-]` [NSC-13755]: the “inhibition of total AP site cleavage activity” value in series [1] and in [7] was “complete inhibition” each time. The “outcome in cell-based experiments” value in series [9] is reported as “fail in cell-based experiments”.
Regarding `O=c1c(O)c(-c2cc(O)c(O)c(O)c2)oc2cc(O)cc(O)c12` [myricetin], the “inhibition of total AP site cleavage activity” value in series [1] and in series [7] was ≥ 80% throughout. Also, the IC50 in [2] was 320 nM; in [4], < 500 nM; in series [5], > 57 µM; in series [6], 3.5 µM. In [3], the “AP site damage, inhibitor alone” value is reported as “increased AP site damage relative to the control cells”. For the same molecule, the “AP site damage, inhibitor plus MMS” value in [3] is on record as “potentiated the genotoxic potential of MMS”. Further, the “activity against EndoIV compared with APE1 (in words)” value in series [5] is “completely inactive or weakly active”. In [10], the “mutagenesis in the Ames Test” value is listed as “promote mutagenesis”.
